Biological target: T1, SIRT7 protein (Homo sapiens, UniProt Q9NRC8)
T1 construct: purchased SignalChem S41-30H
T1 sequence (Q9NRC8 1-400): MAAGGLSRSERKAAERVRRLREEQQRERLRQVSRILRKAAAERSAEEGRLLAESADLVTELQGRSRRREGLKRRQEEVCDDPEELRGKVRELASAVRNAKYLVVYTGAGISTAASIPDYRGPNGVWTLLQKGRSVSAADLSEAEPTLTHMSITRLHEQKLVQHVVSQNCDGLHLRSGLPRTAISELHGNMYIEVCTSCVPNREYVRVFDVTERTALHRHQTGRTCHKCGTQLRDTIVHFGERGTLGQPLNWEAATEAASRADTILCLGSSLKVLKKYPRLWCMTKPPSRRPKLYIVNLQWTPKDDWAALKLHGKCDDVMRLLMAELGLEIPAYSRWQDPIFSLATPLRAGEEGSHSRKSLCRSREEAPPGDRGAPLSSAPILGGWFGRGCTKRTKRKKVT
Assay: SIRT Glo assay, inhibitory activity against Sirt7
Assay type: biochemical
Settings: 10 μM compound
Method: Promega's Cat. No. 6450 SIRT Glo assay kit was used, and as the target SIRT7 protein, No. S41-30H protein of SignalChem's Cat. was used. Prepare the compound by diluting it in SIRT Glo buffer in advance to a concentration twice as thick as the final concentration. For the positive control group of white 384 well plate (Greiner Bioone, white, small volume, Cat. No. 874075), and for compound group, dilute sirt7 protein in SIRT Glo buffer and dispense by 5 μL to contain 20 ng per well. In the background control group, 10 μL of SIRT Glo buffer is dispensed.
After adding 5 μL of SIRT Glo buffer to the positive control group, and 5 μL of the diluted compound to the compound group, react for 30 minutes. After making the substrate provided in the SIRT Glo assay, adding 10 μL each, and reacting for 1 hour, the luciferase activity is measured with a microplate reader (Molecular Device, spectramax i3).
Subtract the luciferase level of the background control group in all wells. The % inhibition of the compound was used to obtain the compound's rate of inhibitory activity against sirt7 in the following:
% inhibition=100−(compound group/positive control group)×100.

Compound	inhibition at 10 µM [%]
O=C(Nc1nc2ccccc2s1)c1ccc(CN2CCN(C(=O)Nc3ccccc3)CC2)cc1 [Compound 1-38, 4-(4-(benzo[d]thiazol-2-ylcarbamoyl)benzyl)-N-phenylpiperazine-1-carboxamide]	98
O=C(Nc1nc2ccccc2s1)c1ccc(CN2CCN(C(=O)Nc3ccc(C(F)(F)F)cc3)CC2)cc1 [Compound 1-39, 4-(4-(benzo[d]thiazol-2-ylcarbamoyl)benzyl)-N-(4-(trifluoromethyl)phenyl)piperazine-1-carboxamide]	87
CC(C)NC(=O)N1CCN(Cc2ccc(C(=O)Nc3nc4ccccc4s3)cc2)CC1 [Compound 1-40, 4-(4-(benzo[d]thiazol-2-ylcarbamoyl)benzyl)-N-isopropylpiperazine-1-carboxamide]	87
O=C(Nc1nc2ccccc2s1)c1ccc(CN2CCN(C(=O)NC34CC5CC(CC(C5)C3)C4)CC2)cc1 [Compound 1-41]	66
COc1ccc(NC(=O)N2CCN(Cc3ccc(C(=O)Nc4nc5ccccc5s4)cc3)CC2)cc1 [Compound 1-42, 4-(4-(benzo[d]thiazol-2-ylcarbamoyl)benzyl)-N-(4-methoxyphenyl)piperazine-1-carboxamide]	89
O=C(Nc1nc2ccccc2s1)c1ccc(CN2CCN(C(=O)Nc3ccccc3C(F)(F)F)CC2)cc1 [Compound 1-43, 4-(4-(benzo[d]thiazol-2-ylcarbamoyl)benzyl)-N-(2-(trifluoromethyl)phenyl)piperazine-1-carboxamide]	79
O=C(Nc1nc2ccccc2s1)c1ccc(CN2CCN(C(=O)Nc3ccc(F)cc3)CC2)cc1 [Compound 1-44, 4-(4-(benzo[d]thiazol-2-ylcarbamoyl)benzyl)-N-(4-fluorophenyl)piperazine-1-carboxamide]	95
O=C(Nc1nc2ccccc2s1)c1ccc(CN2CCN(C(=O)Nc3ccccc3F)CC2)cc1 [Compound 1-45, 4-(4-(benzo[d]thiazol-2-ylcarbamoyl)benzyl)-N-(2-fluorophenyl)piperazine-1-carboxamide]	96
O=C(Nc1nc2ccccc2s1)c1ccc(CN2CCN(C(=O)Nc3ccc4c(c3)CCC4)CC2)cc1 [Compound 1-46, 4-(4-(benzo[d]thiazol-2-ylcarbamoyl)benzyl)-N-(2,3-dihydro-1H-inden-5-yl)piperazine-1-carboxamide]	84
Cc1cc(C)cc(NC(=O)N2CCN(Cc3ccc(C(=O)Nc4nc5ccccc5s4)cc3)CC2)c1 [Compound 1-47, 4-(4-(benzo[d]thiazol-2-ylcarbamoyl)benzyl)-N-(3,5-dimethyphenyl)piperazine-1-carboxamide]	88
CCCCOC(=O)CNC(=O)N1CCN(Cc2ccc(C(=O)Nc3nc4ccccc4s3)cc2)CC1 [Compound 1-48, butyl-(4-(4-(benzo[d]thiazol-2-ylcarbamoyl)benzyl)piperazine-1-carbonyl)glycinate]	54
O=C(Nc1nc2ccccc2s1)c1ccc(CN2CCN(C(=O)Nc3ccc(Cl)cc3)CC2)cc1 [Compound 1-49, 4-(4-(benzo[d]thiazol-2-ylcarbamoyl)benzyl)-N-(4-chlorophenyl)piperazine-1-carboxamide]	89
CCc1ccccc1NC(=O)N1CCN(Cc2ccc(C(=O)Nc3nc4ccccc4s3)cc2)CC1 [Compound 1-50, 4-(4-(benzo[d]thiazol-2-ylcarbamoyl)benzyl)-N-(2-ethylphenyl)piperazine-1-carboxamide]	61
Cc1ccc(NC(=O)N2CCN(Cc3ccc(C(=O)Nc4nc5ccccc5s4)cc3)CC2)cc1 [Compound 1-51, 4-(4-(benzo[d]thiazol-2-ylcarbamoyl)benzyl)-N-(p-tolyl)piperazine-1-carboxamide]	90
CCc1ccc(NC(=O)N2CCN(Cc3ccc(C(=O)Nc4nc5ccccc5s4)cc3)CC2)cc1 [Compound 1-52, 4-(4-(benzo[d]thiazol-2-ylcarbamoyl)benzyl)-N-(4-ethylphenyl)piperazine-1-carboxamide]	85
O=C(Nc1nc2ccccc2s1)c1ccc(CN2CCN(C(=O)NC3CCCCC3)CC2)cc1 [Compound 1-53, 4-(4-(benzo[d]thiazol-2-ylcarbamoyl)benzyl)-N-cyclohexylpiperazine-1-carboxamide]	97
O=C(Nc1nc2ccccc2s1)c1ccc(CN2CCN(C(=O)NCCl)CC2)cc1 [Compound 1-54, 4-(4-(benzo[d]thiazol-2-ylcarbamoyl)benzyl)-N-(chloromethyl)piperazine-1-carboxamide]	100
CCN1CCN(Cc2ccc(C(=O)Nc3nc4ccccc4s3)cc2)CC1 [Compound 1-61, N-(benzo[d]thiazol-2-yl)-4-((4-ethylpiperazin-1-yl)methyl)benzamide]	3

The remaining lines, values ahead:

inhibition at 10 µM [%]	Compound
100	CCCNC(=O)N1CCN(Cc2ccc(C(=O)Nc3nc4ccccc4s3)cc2)CC1 [Compound 1-55, 4-(4-(benzo[d]thiazol-2-ylcarbamoyl)benzyl)-N-propylpiperazine-1-carboxamide]
87	CCOc1ccccc1NC(=O)N1CCN(Cc2ccc(C(=O)Nc3nc4ccccc4s3)cc2)CC1 [Compound 1-56, 4-(4-(benzo[d]thiazol-2-ylcarbamoyl)benzyl)-N-(2-ethoxyphenyl)piperazine-1-carboxamide]
12	CC(C)(C)CC(C)(C)NC(=O)N1CCN(Cc2ccc(C(=O)Nc3nc4ccccc4s3)cc2)CC1 [Compound 1-57, 4-(4-(benzo[d]thiazol-2-ylcarbamoyl)benzyl)-N-(2,4,4-trimethylpentan-2-yl)piperazine-1-carboxamide]
87	O=C(Nc1nc2ccccc2s1)c1ccc(CN2CCN(C(=O)Nc3ccccc3Br)CC2)cc1 [Compound 1-58, 4-(4-(benzo[d]thiazol-2-ylcarbamoyl)benzyl)-N-(2-bromophenyl)piperazine-1-carboxamide]
5	CCC(=O)N1CCN(Cc2ccc(C(=O)Nc3nc4ccccc4s3)cc2)CC1 [Compound 1-59, N-(benzo[d]thiazol-2-yl)-4-((4-propionylpiperazin-1-yl)methyl)benzamide]
7	O=C(Nc1nc2ccccc2s1)c1ccc(CN2CCN(C(=O)c3ccccc3)CC2)cc1 [Compound 1-60, N-(benzo[d]thiazol-2-yl)-4-((4-benzoylpiperazin-1-yl)methyl)benzamide]
7	O=C(Nc1nc2ccccc2s1)c1ccc(CN2CCN(Cc3ccccc3)CC2)cc1 [Compound 1-62, N-(benzo[d]thiazol-2-yl)-4-((4-benzylpiperazin-1-yl)methyl)benzamide]
10	CC(C)(C)OC(=O)N1CCC(=Cc2ccc(C(=O)Nc3nc4ccccc4s3)cc2)CC1 [Compound 1-63, tert-butyl 4-(4-(benzo[d]thiazol-2-ylcarbamoyl)benzylidene)piperidine-1-carboxylate]
7	CC(C)(C)OC(=O)N1CCC(Cc2ccc(C(=O)Nc3nc4ccccc4s3)cc2)CC1 [Compound 1-64, tert-butyl 4-(4-(benzol[d]thiazol-2-ylcarbamoyl)benzyl)piperidine-1-carboxylate]
5	O=C(Nc1nc2ccccc2s1)c1ccc(C=C2CCNCC2)cc1 [Compound 1-65, N-(benzo[d]thiazol-2-yl)-4-(piperidin-4-ylidenemethyl)benzamide]
16	O=C(Nc1nc2ccccc2s1)c1ccc(CC2CCNCC2)cc1 [Compound 1-66, N-(benzo[d]thiazol-2-yl)-4-(piperidin-4-ylmethyl)benzamide]
92	CCNC(=O)N1CCC(=Cc2ccc(C(=O)Nc3nc4ccccc4s3)cc2)CC1 [Compound 1-67, 4-(4-(benzo[d]thiazol-2-ylcarbamoyl)benzylidene)-N-ethylpiperidine-1-carboxamide]
100	O=C(Nc1nc2ccccc2s1)c1ccc(C=C2CCN(C(=O)Nc3ccccc3)CC2)cc1 [Compound 1-68, 4-(4-(benzo[d]thiazol-2-ylcarbamoyl)benzylidene)-N-phenylpiperidine-1-carboxamide]
100	CCNC(=O)N1CCC(Cc2ccc(C(=O)Nc3nc4ccccc4s3)cc2)CC1 [Compound 1-69, 4-(4-(benzo[d]thiazol-2-ylcarbamoyl)benzyl)-N-ethylpiperidine-1-carboxamide]
23	O=C(Nc1nc2ccccc2s1)c1ccc(CN2C[C@@H]3C[C@H]2CN3)cc1 [Compound 1-71, 4-(((1S,4S)-2,5-diazabicyclo[2.2.1]heptan-2-yl)methyl)-N-(benzo[d]thiazol-2-yl)benzamide]
40	CCNC(=O)N1C[C@@H]2C[C@H]1CN2Cc1ccc(C(=O)Nc2nc3ccccc3s2)cc1 [Compound 1-72, (1S,4S)-5-(4-(benzo[d]thiazol-2-ylcarbamoyl)benzyl)-N-ethyl-2,5-diazabicyclo[2.2.1]heptane-2-carboxamide]
